Source: article PMC9157009, “Protein proximity networks and functional evaluation of the casein kinase 1 gamma family reveal unique roles for CK1γ3 in WNT signaling” (The Journal of Biological Chemistry, 2022)

Tests used:
GSK3α = target: T1, GSK3α (Homo sapiens, UniProt P49840); test: scanMAX binding assay, GSK3α; conditions: Percent of Control; legend and method: 1 μM
T1 construct: purchased Eurofins DiscoverX Corporation
From the text: (§1) As described previously, this commercial assay platform screens against 403 WT human kinases in binding assays and provides PoC values ([73]).

CK1γ2 = target: T2, CK1γ2 (Homo sapiens, UniProt P78368); test: scanMAX binding assay, CK1γ2; conditions: Percent of Control; legend and method: 1 μM; read-out: CK1γ2 PoC @ 1 µM
T2 construct: purchased Eurofins
From the text: as §1

CK1γ3 = target: T3, CK1γ3 (Homo sapiens, UniProt Q9Y6M4); test: scanMAX binding assay, CK1γ3; conditions: Percent of Control; legend and method: 1 μM; read-out: CK1γ3 PoC @ 1 µM
T3 construct: purchased Eurofins
From the text: as §1

CK1γ1 = target: T4, CK1γ1 (Homo sapiens, UniProt Q9HCP0); test: scanMAX binding assay, CK1γ1; conditions: Percent of Control; legend and method: 1 μM; read-out: CK1γ1 PoC @ 1 µM
T4 construct: purchased Eurofins
From the text: as §1

DYRK1B = target: T5, DYRK1B (Homo sapiens, UniProt Q9Y463); test: scanMAX binding assay, DYRK1B; conditions: Percent of Control; legend and method: 1 μM; read-out: DYRK1B PoC @ 1 µM
T5 construct: purchased Eurofins DiscoverX Corporation
From the text: as §1

CSNK1D = CSNK1D (Homo sapiens, UniProt P48730); test: scanMAX binding assay, CSNK1D; conditions: Percent of Control; legend and method: 1 μM; read-out: CSNK1D PoC @ 1 µM
From the text: as §1

DYRK1A = target: T6, DYRK1A (Homo sapiens, UniProt Q13627); test: scanMAX binding assay, DYRK1A; conditions: Percent of Control; legend and method: 1 μM; read-out: DYRK1A PoC @ 1mM
T6 construct: purchased Eurofins DiscoverX Corporation
From the text: as §1

CIT = target: T7, CIT (Homo sapiens, UniProt O14578); test: scanMAX binding assay, CIT; conditions: Percent of Control; legend and method: 1 μM; read-out: CIT PoC @ 1 µM
T7 construct: purchased Eurofins DiscoverX Corporation
From the text: as §1

CSNK1A1L = CSNK1A1L (Homo sapiens, UniProt Q8N752); test: scanMAX binding assay, CSNK1A1L; conditions: Percent of Control; legend and method: 1 μM; read-out: CSNK1A1L PoC @ 1 µM
From the text: as §1

TAK1 = target: T8, TAK1 (Homo sapiens, UniProt O43318); test: scanMAX binding assay, TAK1; conditions: Percent of Control; legend and method: 1 μM; read-out: TAK1 PoC @ 1 µM
T8 construct: purchased Eurofins DiscoverX Corporation (scanMAX)
From the text: as §1

CLK2 = target: T9, CLK2 (Homo sapiens, UniProt P49760); test: scanMAX binding assay, CLK2; conditions: Percent of Control; legend and method: 1 μM; read-out: CLK2 PoC @ 1 µM
T9 construct: purchased Eurofins DiscoverX Corporation (scanMAX)
From the text: as §1

CK1γ2 (NLuc-CK1γ2) = target: T10, CK1γ2 (NLuc-CK1γ2) (Homo sapiens, UniProt P78368); test: NanoBRET cellular target engagement assay, NLuc-CK1γ2 in HEK293T cells; type: cell-based; conditions: live HEK293T cells, 0.5 μM tracer K-10; read-out: NL-CK1γ2 NanoBRET IC50
T10 construct: host or cells: HEK293T
Experimental: HEK293T cells (hypotriploid, fetal) were purchased from ATCC. These cells were grown in Dulbecco’s modified Eagle’s medium (Gibco) supplemented with 10% (v/v) fetal bovine serum (Corning). They were incubated in 5% CO2 at 37 °C and passaged every 72 h with trypsin and not allowed to reach confluency. Constructs for NanoBRET measurements of CK1γ2 (NLuc-CK1γ2) and GSK3β (NLuc-GSK3β) were kindly provided by Promega. NanoBRET assays were carried out as described previously ([74]). Preferred NLuc orientations, both N-terminal in this case, are indicated in parentheses after each construct. Assays were carried out in dose–response as described by the manufacturer using 0.5 μM of tracer K-10 for CK1γ2 and 0.063 μM of tracer K-8 for GSK3β. Two biological replicates were executed with two technical replicates to produce the graphs with error bars shown in Figures 6E, 7E, 8, A and B. Tracer titration curves for these kinases that motivated our tracer selection and working concentration can be found on the Promega website.

β-catenin = test: W. blot of β-catenin stabilization after WNT3A in RKO cells; type: cell-based, human; conditions: RKO cells pretreated 1 h, WNT3A 30 or 60 min, compared with dimethyl sulfoxide control
Experimental: (§2) Standard W. blot techniques were utilized and performed as previously described ([15], [43]). Briefly, cells were lysed in RIPA lysis buffer, flash frozen on dry ice, and then cleared at high speed for 10 min at maximum speed. Protein concentration was determined by a bicinchoninic acid assay following kit specifications. Samples were balanced, and NuPAGE 4× SDS loading buffer (Thermo Fisher Scientific; catalog no.: NP0007) containing DTT was added to each sample and heated for 10 min at 70 °C. Samples were run on a NuPAGE 4 to 12% Bis–Tris Protein Gel (Thermo Fisher Scientific; catalog no.: NP0321) and then transferred to a nitrocellulose membrane. The membrane was then blocked and incubated overnight with primary antibody at 4 °C with rotation, washed with Tris-buffered saline with Tween-20, incubated with secondary antibody, washed with Tris-buffered saline with Tween-20, and imaged. Images were taken using a LiCOR Odyssey CLx imager and quantified with LiCOR software (LiCOR Biosciences). All antibodies were used at a concentration of 1:1000, with the exception of loading controls, which were used at 1:10,000. […]

LRP6 = test: W. blot of LRP6 phosphorylation after WNT3A in RKO cells; type: cell-based, human; conditions: RKO cells pretreated 1 h
Experimental: as §2

T1 sequence (P49840 whole entry): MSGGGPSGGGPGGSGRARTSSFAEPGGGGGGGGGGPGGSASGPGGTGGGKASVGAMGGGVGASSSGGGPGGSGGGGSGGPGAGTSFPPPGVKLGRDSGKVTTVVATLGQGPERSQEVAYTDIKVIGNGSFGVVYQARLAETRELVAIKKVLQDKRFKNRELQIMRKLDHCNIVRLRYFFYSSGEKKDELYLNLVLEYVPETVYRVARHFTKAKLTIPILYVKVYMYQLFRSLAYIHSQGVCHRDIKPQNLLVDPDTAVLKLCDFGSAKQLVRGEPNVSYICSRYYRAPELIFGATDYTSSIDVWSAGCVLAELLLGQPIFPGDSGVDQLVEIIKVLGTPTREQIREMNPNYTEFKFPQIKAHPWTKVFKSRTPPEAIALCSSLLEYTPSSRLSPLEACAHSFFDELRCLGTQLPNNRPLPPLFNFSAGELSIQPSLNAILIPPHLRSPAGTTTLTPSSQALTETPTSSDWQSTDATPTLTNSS
T10 sequence (P78368 whole entry): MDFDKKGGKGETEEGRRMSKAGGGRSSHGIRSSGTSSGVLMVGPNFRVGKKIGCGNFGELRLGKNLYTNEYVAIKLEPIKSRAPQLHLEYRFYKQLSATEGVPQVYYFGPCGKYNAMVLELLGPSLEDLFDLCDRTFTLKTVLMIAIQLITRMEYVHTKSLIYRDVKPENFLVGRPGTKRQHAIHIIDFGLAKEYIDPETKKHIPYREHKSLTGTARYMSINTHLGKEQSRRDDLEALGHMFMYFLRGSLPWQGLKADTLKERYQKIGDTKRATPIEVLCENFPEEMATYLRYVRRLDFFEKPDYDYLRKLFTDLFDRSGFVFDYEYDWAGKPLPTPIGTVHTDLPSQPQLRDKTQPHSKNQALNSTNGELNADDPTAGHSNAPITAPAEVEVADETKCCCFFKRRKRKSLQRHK
T2 sequence (P78368 whole entry): as above
CSNK1D, sequence (P48730 whole entry): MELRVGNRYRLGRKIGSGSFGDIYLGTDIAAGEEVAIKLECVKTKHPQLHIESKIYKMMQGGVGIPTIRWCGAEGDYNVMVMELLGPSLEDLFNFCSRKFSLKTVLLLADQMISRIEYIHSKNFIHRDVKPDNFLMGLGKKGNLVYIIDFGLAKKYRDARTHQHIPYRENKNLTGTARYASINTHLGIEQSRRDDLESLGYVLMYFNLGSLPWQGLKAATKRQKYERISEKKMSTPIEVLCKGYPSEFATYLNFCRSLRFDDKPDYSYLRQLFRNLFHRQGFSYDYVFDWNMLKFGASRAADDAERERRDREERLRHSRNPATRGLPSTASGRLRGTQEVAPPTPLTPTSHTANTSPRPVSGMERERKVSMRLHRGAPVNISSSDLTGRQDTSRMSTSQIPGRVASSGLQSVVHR
T8 sequence (O43318 whole entry): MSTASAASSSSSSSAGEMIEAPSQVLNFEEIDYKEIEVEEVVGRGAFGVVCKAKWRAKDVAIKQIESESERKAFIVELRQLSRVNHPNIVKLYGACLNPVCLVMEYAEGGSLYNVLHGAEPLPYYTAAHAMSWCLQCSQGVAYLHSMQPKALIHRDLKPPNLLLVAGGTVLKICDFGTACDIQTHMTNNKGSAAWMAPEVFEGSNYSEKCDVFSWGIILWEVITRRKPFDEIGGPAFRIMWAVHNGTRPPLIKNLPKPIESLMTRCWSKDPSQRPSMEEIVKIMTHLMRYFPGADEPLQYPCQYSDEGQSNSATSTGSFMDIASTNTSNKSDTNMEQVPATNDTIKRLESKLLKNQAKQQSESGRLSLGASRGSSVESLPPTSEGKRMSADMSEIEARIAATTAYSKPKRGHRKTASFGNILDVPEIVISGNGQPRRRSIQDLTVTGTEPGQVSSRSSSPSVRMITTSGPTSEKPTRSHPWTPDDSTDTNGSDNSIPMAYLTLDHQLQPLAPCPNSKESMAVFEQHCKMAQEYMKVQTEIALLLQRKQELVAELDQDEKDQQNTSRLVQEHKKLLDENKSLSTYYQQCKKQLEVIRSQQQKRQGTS
CSNK1A1L, sequence (Q8N752 whole entry): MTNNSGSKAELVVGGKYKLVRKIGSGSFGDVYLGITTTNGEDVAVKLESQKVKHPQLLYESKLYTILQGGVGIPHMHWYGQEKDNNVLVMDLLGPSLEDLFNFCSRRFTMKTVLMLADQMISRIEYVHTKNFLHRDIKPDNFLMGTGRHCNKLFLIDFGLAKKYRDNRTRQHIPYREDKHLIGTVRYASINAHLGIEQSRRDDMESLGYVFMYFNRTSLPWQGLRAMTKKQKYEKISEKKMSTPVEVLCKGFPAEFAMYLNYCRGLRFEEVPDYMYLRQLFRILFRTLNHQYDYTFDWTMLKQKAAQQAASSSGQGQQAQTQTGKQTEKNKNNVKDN
T9 sequence (P49760 whole entry): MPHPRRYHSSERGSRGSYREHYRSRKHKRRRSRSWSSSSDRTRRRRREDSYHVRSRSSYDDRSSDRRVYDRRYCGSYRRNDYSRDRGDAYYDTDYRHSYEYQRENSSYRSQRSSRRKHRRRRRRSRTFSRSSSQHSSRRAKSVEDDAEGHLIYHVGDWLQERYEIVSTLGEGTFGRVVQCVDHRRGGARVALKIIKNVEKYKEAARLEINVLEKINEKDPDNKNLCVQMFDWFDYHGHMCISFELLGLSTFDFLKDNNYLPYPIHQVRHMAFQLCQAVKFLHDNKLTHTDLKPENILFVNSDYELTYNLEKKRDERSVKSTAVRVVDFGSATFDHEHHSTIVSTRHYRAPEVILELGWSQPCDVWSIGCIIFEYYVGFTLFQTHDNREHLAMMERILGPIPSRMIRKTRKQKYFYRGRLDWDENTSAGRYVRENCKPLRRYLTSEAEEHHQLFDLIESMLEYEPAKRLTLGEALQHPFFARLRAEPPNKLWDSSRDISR
T5 sequence (Q9Y463 whole entry): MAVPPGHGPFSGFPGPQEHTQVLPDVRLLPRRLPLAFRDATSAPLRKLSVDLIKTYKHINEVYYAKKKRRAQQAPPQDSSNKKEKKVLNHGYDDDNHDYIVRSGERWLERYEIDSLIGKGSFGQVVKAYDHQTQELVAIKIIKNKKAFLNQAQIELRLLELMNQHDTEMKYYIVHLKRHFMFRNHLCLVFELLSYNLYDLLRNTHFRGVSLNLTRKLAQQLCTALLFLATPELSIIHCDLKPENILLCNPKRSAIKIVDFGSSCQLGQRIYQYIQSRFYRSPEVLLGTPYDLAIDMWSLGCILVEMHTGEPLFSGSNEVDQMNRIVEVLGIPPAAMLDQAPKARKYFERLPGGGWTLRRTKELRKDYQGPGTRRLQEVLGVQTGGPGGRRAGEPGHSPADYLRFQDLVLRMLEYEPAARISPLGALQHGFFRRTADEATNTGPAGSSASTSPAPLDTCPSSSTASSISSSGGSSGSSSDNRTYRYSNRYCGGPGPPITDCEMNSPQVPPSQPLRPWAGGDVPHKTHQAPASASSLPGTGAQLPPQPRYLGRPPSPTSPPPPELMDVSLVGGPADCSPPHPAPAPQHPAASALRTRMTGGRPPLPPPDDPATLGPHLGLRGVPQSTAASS
T4 sequence (Q9HCP0 whole entry): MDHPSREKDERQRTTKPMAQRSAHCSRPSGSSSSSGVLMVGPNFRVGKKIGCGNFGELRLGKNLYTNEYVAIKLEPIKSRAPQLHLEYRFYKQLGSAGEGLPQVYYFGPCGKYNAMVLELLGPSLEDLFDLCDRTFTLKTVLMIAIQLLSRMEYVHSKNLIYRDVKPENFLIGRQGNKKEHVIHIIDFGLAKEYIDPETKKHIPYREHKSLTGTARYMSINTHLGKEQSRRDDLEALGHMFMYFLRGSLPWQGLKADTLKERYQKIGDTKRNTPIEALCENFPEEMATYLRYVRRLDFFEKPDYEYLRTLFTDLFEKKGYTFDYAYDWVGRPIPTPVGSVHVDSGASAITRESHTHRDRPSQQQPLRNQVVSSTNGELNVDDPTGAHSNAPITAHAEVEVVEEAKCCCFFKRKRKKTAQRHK
T3 sequence (Q9Y6M4 whole entry): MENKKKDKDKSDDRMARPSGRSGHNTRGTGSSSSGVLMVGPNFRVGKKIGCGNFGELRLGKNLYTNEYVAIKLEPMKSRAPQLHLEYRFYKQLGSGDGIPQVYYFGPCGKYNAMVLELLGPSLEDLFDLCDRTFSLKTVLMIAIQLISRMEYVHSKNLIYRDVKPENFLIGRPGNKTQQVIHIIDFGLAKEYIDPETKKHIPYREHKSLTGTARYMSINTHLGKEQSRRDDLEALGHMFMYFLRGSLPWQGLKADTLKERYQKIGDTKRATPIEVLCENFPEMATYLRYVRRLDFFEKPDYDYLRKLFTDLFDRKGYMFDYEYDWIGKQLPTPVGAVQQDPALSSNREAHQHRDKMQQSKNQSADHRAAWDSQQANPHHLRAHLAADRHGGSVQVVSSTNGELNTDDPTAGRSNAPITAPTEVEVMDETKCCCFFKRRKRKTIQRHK

GSK3α PoC @ 1 µM (GSK3α): did not inhibit | remaining binding at 1 µM (CK1γ2): 4.3% | remaining binding at 1 µM (CK1γ3): 0.9% | remaining binding at 1 µM (CK1γ1): 8.5% | remaining binding at 1 µM (DYRK1B): 7.1% | remaining binding at 1 µM (CSNK1D): 0% | remaining binding at 1000 µM (DYRK1A): 0.1% | remaining binding at 1 µM (CIT): 0.6% | remaining binding at 1 µM (CSNK1A1L): 5.9% | remaining binding at 1 µM (TAK1): 6.9% | remaining binding at 1 µM (CLK2): 7.2% | IC50 (CK1γ2 (NLuc-CK1γ2)): 10.7 nM
SMILES: COc1cnc(COc2ccc(F)c(F)c2)cc1-c1cc2c([nH]1)CCNC2=O [FP1-24-2, 2-(2-((3,4-difluorophenoxy)methyl)-5-methoxypyridin-4-yl)-1,5,6,7-tetrahydro-4H-pyrrolo[3,2-c]pyridin-4-one]
β-catenin stabilization (β-catenin): diminished | phosphorylation of LRP6 at site S1490 (LRP6; WNT3A 30 or 60 min, compared with dimethyl sulfoxide control): diminished | LRP6 phosphorylation at T1479 (LRP6; then exposed to WNT3A 30 or 60 min): did not increase
